Laboratory results reported in the NIST ThermoML archive (doi:10.1016/j.jct.2006.01.012).

Assay: xn = mol fraction of the nth substance listed
Conditions: Liquid; for mass density: isochoric method; for viscosity: Capillary tube (Ostwald / Ubbelohde) method

CCCCCCCC [octane] + CCCCCCC
Conditions | mass density [kg/m3] | viscosity [mPa·s]
293.15 K, 100 kPa, x2 = 0.2808 | 697.8 | –
293.15 K, 100 kPa, x2 = 0.5427 | 693.2 | –
293.15 K, 100 kPa, x2 = 0.7906 | 688.3 | –
298.15 K, 100 kPa, x2 = 0.2808 | 694 | –
298.15 K, 100 kPa, x2 = 0.5427 | 689.2 | 0.436
298.15 K, 100 kPa, x2 = 0.7906 | 684.2 | –
298.15 K, 5000 kPa, x2 = 0.5427 | – | 0.461
298.15 K, 10000 kPa, x2 = 0.5427 | – | 0.487
298.22 K, 100 kPa, x2 = 0.7906 | – | 0.408
298.22 K, 5000 kPa, x2 = 0.7906 | – | 0.435
298.22 K, 10000 kPa, x2 = 0.7906 | – | 0.459
298.39 K, 100 kPa, x2 = 0.2808 | – | 0.467
298.39 K, 5000 kPa, x2 = 0.2808 | – | 0.493
298.39 K, 10000 kPa, x2 = 0.2808 | – | 0.521
299.24 K, 3824 kPa, x2 = 0.5427 | 691.8 | –
299.24 K, 6865 kPa, x2 = 0.5427 | 694.6 | –
299.24 K, 9316 kPa, x2 = 0.5427 | 696.4 | –
303.15 K, 100 kPa, x2 = 0.2808 | 689.9 | –
303.15 K, 100 kPa, x2 = 0.5427 | 685 | –
303.15 K, 100 kPa, x2 = 0.7906 | 680.1 | –
303.39 K, 100 kPa, x2 = 0.5427 | – | 0.414
303.39 K, 5000 kPa, x2 = 0.5427 | – | 0.435
303.39 K, 10000 kPa, x2 = 0.5427 | – | 0.459
303.85 K, 100 kPa, x2 = 0.2808 | – | 0.441
303.85 K, 5000 kPa, x2 = 0.2808 | – | 0.465
303.85 K, 10000 kPa, x2 = 0.2808 | – | 0.492
305.74 K, 100 kPa, x2 = 0.7906 | – | 0.379
305.74 K, 5000 kPa, x2 = 0.7906 | – | 0.402
305.74 K, 10000 kPa, x2 = 0.7906 | – | 0.425
306.18 K, 2942 kPa, x2 = 0.2808 | 690.3 | –
306.18 K, 7021 kPa, x2 = 0.2808 | 693.8 | –
306.18 K, 8826 kPa, x2 = 0.2808 | 695.3 | –
307.62 K, 2608 kPa, x2 = 0.7906 | 678.6 | –
307.62 K, 7178 kPa, x2 = 0.7906 | 683 | –
307.62 K, 9140 kPa, x2 = 0.7906 | 684.6 | –
308.15 K, 100 kPa, x2 = 0.2808 | 686.1 | –
308.15 K, 100 kPa, x2 = 0.5427 | 680.9 | –
308.15 K, 100 kPa, x2 = 0.7906 | 675.9 | –
312.71 K, 100 kPa, x2 = 0.2808 | – | 0.4
312.71 K, 5000 kPa, x2 = 0.2808 | – | 0.424
312.71 K, 10000 kPa, x2 = 0.2808 | – | 0.446
312.74 K, 100 kPa, x2 = 0.5427 | – | 0.374
312.74 K, 5000 kPa, x2 = 0.5427 | – | 0.396
312.74 K, 10000 kPa, x2 = 0.5427 | – | 0.419
312.75 K, 100 kPa, x2 = 0.7906 | – | 0.352
312.75 K, 5000 kPa, x2 = 0.7906 | – | 0.373
312.75 K, 10000 kPa, x2 = 0.7906 | – | 0.395
313.15 K, 100 kPa, x2 = 0.2808 | 681.6 | –
313.15 K, 100 kPa, x2 = 0.5427 | 676.6 | –
313.15 K, 100 kPa, x2 = 0.7906 | 671.6 | –
318.15 K, 100 kPa, x2 = 0.2808 | 677.4 | –
318.15 K, 100 kPa, x2 = 0.5427 | 672.7 | –
318.15 K, 100 kPa, x2 = 0.7906 | 667.3 | –
321.21 K, 100 kPa, x2 = 0.5427 | – | 0.338
321.21 K, 5000 kPa, x2 = 0.5427 | – | 0.359
321.21 K, 10000 kPa, x2 = 0.5427 | – | 0.38
321.71 K, 100 kPa, x2 = 0.2808 | – | 0.362
321.71 K, 5000 kPa, x2 = 0.2808 | – | 0.384
321.71 K, 10000 kPa, x2 = 0.2808 | – | 0.405
323.15 K, 100 kPa, x2 = 0.2808 | 673.2 | –
323.15 K, 100 kPa, x2 = 0.5427 | 668.5 | –
323.15 K, 100 kPa, x2 = 0.7906 | 663 | –
323.82 K, 100 kPa, x2 = 0.7906 | – | 0.314
323.82 K, 5000 kPa, x2 = 0.7906 | – | 0.334
323.82 K, 10000 kPa, x2 = 0.7906 | – | 0.353
331.45 K, 4121 kPa, x2 = 0.7906 | 658.7 | –
331.45 K, 6311 kPa, x2 = 0.7906 | 662.6 | –
331.45 K, 8523 kPa, x2 = 0.7906 | 665.5 | –
331.45 K, 10350 kPa, x2 = 0.7906 | 667.1 | –
331.55 K, 4119 kPa, x2 = 0.5427 | 665 | –
331.55 K, 5944 kPa, x2 = 0.5427 | 668.1 | –
331.55 K, 8203 kPa, x2 = 0.5427 | 670.9 | –
331.55 K, 10100 kPa, x2 = 0.5427 | 672.6 | –
333.15 K, 100 kPa, x2 = 0.2808 | 664.9 | –
333.15 K, 100 kPa, x2 = 0.5427 | 659.9 | –
333.15 K, 100 kPa, x2 = 0.7906 | 654.4 | –
333.54 K, 100 kPa, x2 = 0.2808 | – | 0.322
333.54 K, 5000 kPa, x2 = 0.2808 | – | 0.341
333.54 K, 10000 kPa, x2 = 0.2808 | – | 0.36
333.73 K, 100 kPa, x2 = 0.5427 | – | 0.3
333.73 K, 5000 kPa, x2 = 0.5427 | – | 0.319
333.73 K, 10000 kPa, x2 = 0.5427 | – | 0.338
335.62 K, 100 kPa, x2 = 0.7906 | – | 0.281
335.62 K, 5000 kPa, x2 = 0.7906 | – | 0.298
335.62 K, 10000 kPa, x2 = 0.7906 | – | 0.316
338.15 K, 100 kPa, x2 = 0.2808 | 661 | –
338.15 K, 100 kPa, x2 = 0.5427 | 655.6 | –
338.15 K, 100 kPa, x2 = 0.7906 | 650.1 | –
343.15 K, 100 kPa, x2 = 0.2808 | 656.8 | –
343.15 K, 100 kPa, x2 = 0.5427 | 651.2 | –
343.15 K, 100 kPa, x2 = 0.7906 | 645.6 | –
344.21 K, 100 kPa, x2 = 0.7906 | – | 0.26
344.21 K, 5000 kPa, x2 = 0.7906 | – | 0.276
344.21 K, 10000 kPa, x2 = 0.7906 | – | 0.292
344.39 K, 100 kPa, x2 = 0.2808 | – | 0.291
344.39 K, 5000 kPa, x2 = 0.2808 | – | 0.308
344.39 K, 10000 kPa, x2 = 0.2808 | – | 0.325
344.4 K, 100 kPa, x2 = 0.5427 | – | 0.273
344.4 K, 5000 kPa, x2 = 0.5427 | – | 0.29
344.4 K, 10000 kPa, x2 = 0.5427 | – | 0.307
352.61 K, 2844 kPa, x2 = 0.5427 | 648 | –
352.61 K, 8237 kPa, x2 = 0.5427 | 654.9 | –
352.61 K, 10040 kPa, x2 = 0.5427 | 657 | –
352.62 K, 100 kPa, x2 = 0.5427 | – | 0.255
352.62 K, 5000 kPa, x2 = 0.5427 | – | 0.27
352.62 K, 10000 kPa, x2 = 0.5427 | – | 0.286
353.2 K, 100 kPa, x2 = 0.7906 | – | 0.239
353.2 K, 5000 kPa, x2 = 0.7906 | – | 0.255
353.2 K, 10000 kPa, x2 = 0.7906 | – | 0.27
354.08 K, 100 kPa, x2 = 0.2808 | – | 0.267
354.08 K, 5000 kPa, x2 = 0.2808 | – | 0.283
354.08 K, 10000 kPa, x2 = 0.2808 | – | 0.299
357.15 K, 100 kPa, x2 = 0.2808 | 644.3 | –
357.15 K, 100 kPa, x2 = 0.5427 | 638.8 | –
357.15 K, 100 kPa, x2 = 0.7906 | 633 | –
362.65 K, 4800 kPa, x2 = 0.2808 | 646.1 | –
362.65 K, 6720 kPa, x2 = 0.2808 | 649 | –
362.65 K, 9300 kPa, x2 = 0.2808 | 652.5 | –
363.71 K, 100 kPa, x2 = 0.2808 | – | 0.245
363.71 K, 5000 kPa, x2 = 0.2808 | – | 0.261
363.71 K, 10000 kPa, x2 = 0.2808 | – | 0.276
363.74 K, 100 kPa, x2 = 0.5427 | – | 0.232
363.74 K, 5000 kPa, x2 = 0.5427 | – | 0.247
363.74 K, 10000 kPa, x2 = 0.5427 | – | 0.26
364.62 K, 100 kPa, x2 = 0.7906 | – | 0.216
364.62 K, 5000 kPa, x2 = 0.7906 | – | 0.232
364.62 K, 10000 kPa, x2 = 0.7906 | – | 0.246
365.46 K, 3432 kPa, x2 = 0.7906 | 631.8 | –
365.46 K, 8983 kPa, x2 = 0.7906 | 639.4 | –
365.46 K, 9963 kPa, x2 = 0.7906 | 640.9 | –
